The values below come from patent publication US8691775B2, “Use of drugs that activate P2Y receptors to enhance synaptogenesis” (Back Bay Scientific, LLC, priority 2010, dated 2014).

For data set [1], the system named is PSD-95 protein in PC12 cells. The data set is described as follows: Level of PSD-95 in PC12 cells incubated with test compound. Type of data set: cell-based. The conditions noted are these: incubation 2 or 4 days. The source says:
Postsynaptic protein PSD-95 is a member of the membrane-associated guanylate kinase (MAGUK) family. The protein is almost exclusively located in the postsynaptic density of neurons and is involved in anchoring synaptic proteins. The inventor hypothesized that active agents that increase the level of the PSD-95 protein in cultured cells may be screened for their ability to activate P2Y receptors in animal models.
PC12 cells, a cell line ultimately derived from neural cells, are maintained in Minimal Essential Medium (MEM; Invitrogen, Carlsbad, Calif.) supplemented with 10% fetal bovine serum (FBS) at 37° C. Experimental incubations are for 2 or 4 days in medium with or without test compounds.
The activity of each test compound is assessed by determining the effect of each test compound on the level of PSD-95 in the cells.

A further data set has as its system brain dendritic spines. The data set is described as follows: Brain dendritic spines in laboratory animals injected intraperitoneally with test compound. Type of data set: in vivo. The conditions noted are these: intraperitoneal injection after 6 weeks of diet. The source says:
The laboratory animals are fed a food composition with or without a synthetic diet enriched with uridine, DHA and choline for 6 weeks, and are then intraperitoneally injected with a composition comprising the test compound.

The conditions of data set [2]: rats; cited from earlier work.

In the case of `CCCCCCSc1nc(N)c2ncn([C@@H]3O[C@H](COP(=O)(O)O)[C@@H](O)[C@H]3O)c2n1` [2-(hexylthio) (HT)-AMP], the “level of the PSD-95 protein in tissue culture” value (shortened to “level of the PSD-95 protein”) in data set [1] is on record as “effective”. Moreover, the “level of brain dendritic spines in laboratory animals” value (shortened to “level of brain dendritic spines”) in the data set with brain dendritic spines is “effective”.

As for `CSc1nc(N)c2ncn([C@@H]3O[C@H](COP(=O)(O)OP(=O)(O)OP(=O)(O)O)[C@@H](O)[C@H]3O)c2n1` [2-MeSATP], the “level of the PSD-95 protein” value in data set [1] is “effective”. The “level of brain dendritic spines” value in the data set on brain dendritic spines is reported as “effective”.

As to `CSc1nc(N)c2ncn([C@@H]3O[C@H](COP(=O)([O-])OP(=O)([O-])[O-])[C@@H](O)[C@H]3O)c2n1.[Na+].[Na+].[Na+]` [2-Methylthio-ADP trisodium salt], in data set [1], the “level of the PSD-95 protein” value is recorded as “effective”. Besides, the “level of brain dendritic spines” value with brain dendritic spines is given as “effective”. Take `O=c1ccn([C@@H]2O[C@H](COP(=O)([O-])OP(=O)([O-])OP(=O)([O-])[O-])[C@@H](O)[C@H]2O)c(=S)[nH]1.[Na+].[Na+].[Na+].[Na+]` [2-ThioUTP tetrasodium salt]: in data set [1], the “level of the PSD-95 protein” value was “effective”. Moreover, the “level of brain dendritic spines” value with brain dendritic spines is given as “effective”. Regarding `O=c1ccn([C@@H]2O[C@H](COP(=O)(O)OP(=O)(O)OP(=O)(O)O)[C@@H](O)[C@H]2O)c(=S)[nH]1` [2-thio-UTP], the “level of the PSD-95 protein” value in data set [1] is “effective”. Also, the “level of brain dendritic spines” value in the data set with brain dendritic spines is “effective”. Consider `N[C@@H]1[C@H](O)[C@@H](COP(=O)(O)OP(=O)(O)OP(=O)(O)O)O[C@H]1n1ccc(=O)[nH]c1=O` [2′-deoxy-2′-amino-UTP], for which the “level of the PSD-95 protein” value in data set [1] is on record as “effective”. Also, the “level of brain dendritic spines” value with brain dendritic spines is on record as “effective”. In the case of `Nc1ncnc2c1ncn2[C@@H]1O[C@H](COP(=O)(O)OP(=O)(O)O)[C@@H](O)[C@H]1O` [ADP], in data set [1], the “level of the PSD-95 protein” value is listed as “effective”. Further, the “level of brain dendritic spines” value with brain dendritic spines was “effective”. Take `Nc1ncnc2c1ncn2[C@@H]1O[C@H](COP(=O)(O)OP(=O)([O-])OP(=O)([O-])O)[C@@H](O)[C@H]1O.[Na+].[Na+]` [ATP disodium salt]: the “level of the PSD-95 protein” value in data set [1] is given as “effective”. As for `Nc1ncnc2c1ncn2[C@@H]1O[C@H](COP(=O)(O)OP(=O)(O)OP(=O)(O)OP(=O)(O)OC[C@H]2O[C@@H](n3cnc4c(N)ncnc43)[C@H](O)[C@@H]2O)[C@@H](O)[C@H]1O` [Ap4A], the “level of the PSD-95 protein” value in data set [1] is “effective”. In addition, the “level of brain dendritic spines” value with brain dendritic spines is given as “effective”. As to `Nc1ncnc2c1ncn2[C@@H]1O[C@H](COP(=O)(O)OP(=O)(O)OP(=O)(O)OP(=O)(O)OC[C@H]2O[C@@H](n3ccc(=O)[nH]c3=O)[C@H](O)[C@@H]2O)[C@@H](O)[C@H]1O` [Ap4U], the “level of the PSD-95 protein” value in data set [1] is given as “effective”. Moreover, the “level of brain dendritic spines” value in the data set on brain dendritic spines was “effective”. For `Nc1ccn([C@@H]2O[C@H](COP(=O)(O)OP(=O)(O)OP(=O)(O)O)[C@@H](O)[C@H]2O)c(=O)n1` [CTP, cytidine-triphosphate], the “level of the PSD-95 protein” value in data set [1] is recorded as “effective”. Besides, in the data set with brain dendritic spines, the “level of brain dendritic spines” value was “effective”. In the case of `Nc1nc2c(ncn2[C@@H]2O[C@H](COP(=O)(O)OP(=O)(O)OP(=O)(O)O)[C@@H](O)[C@H]2O)c(=O)[nH]1` [GTP], the “level of the PSD-95 protein” value in data set [1] is reported as “effective”. In the data set on brain dendritic spines, the “level of brain dendritic spines” value was “effective”. For the compound `O=c1ccn([C@@H]2O[C@H](COP(=O)(O)OP(=O)(O)OP(=O)(O)OP(=O)(O)OC[C@H]3O[C@@H](n4ccc(=O)[nH]c4=O)[C@H](O)[C@@H]3O)[C@@H](O)[C@H]2O)c(=O)[nH]1` [INS365], the “level of the PSD-95 protein” value in data set [1] is reported as “effective”. In addition, the “level of brain dendritic spines” value in the data set on brain dendritic spines is on record as “effective”. For `O=c1[nH]cnc2c1ncn2[C@@H]1O[C@H](COP(=O)(O)OP(=O)(O)OP(=O)(O)O)[C@@H](O)[C@H]1O` [ITP], in data set [1], the “level of the PSD-95 protein” value is listed as “effective”. The “level of brain dendritic spines” value in the data set on brain dendritic spines was “effective”.

For the compound `CSc1nc(N)c2ncn([C@H]3[C@H](O)[C@H](O)[C@]4(COP(=O)(O)OP(=O)(O)O)C[C@H]34)c2n1` [MRS 2365], the “level of the PSD-95 protein” value in data set [1] was “effective”. Moreover, in the data set on brain dendritic spines, the “level of brain dendritic spines” value is listed as “effective”.

As for `O=c1ccn([C@@H]2O[C@H](COP(=O)([O-])OP(=O)([O-])O[C@H]3O[C@H](CO)[C@@H](O)[C@H](O)[C@H]3O)[C@@H](O)[C@H]2O)c(=S)[nH]1.[Na+].[Na+]` [MRS 2690], in data set [1], the “level of the PSD-95 protein” value was “effective”. Besides, the “level of brain dendritic spines” value with brain dendritic spines was “effective”. With `N[C@@H]1[C@H](O)[C@@H](COP(=O)(O)OP(=O)(O)OP(=O)(O)O)O[C@H]1n1ccc(=O)[nH]c1=S` [MRS 2698], the “level of the PSD-95 protein” value in data set [1] is given as “effective”. For the same compound, the “level of brain dendritic spines” value with brain dendritic spines was “effective”. As to `O=C(Cn1c(=O)ccn(C2OC(COP(=O)(O)OP(=O)(O)O)C(O)C2O)c1=O)c1ccccc1` (stereo not shown) [PSB 0474], the “level of the PSD-95 protein” value in data set [1] is recorded as “effective”. Also, the “level of brain dendritic spines” value in the data set with brain dendritic spines is given as “effective”. In the case of `O=c1ccn([C@@H]2O[C@H](COP(=O)(O)OP(=O)(O)O)[C@@H](O)[C@H]2O)c(=O)[nH]1` [UDP, uridine 5′-diphosphate], the “level of the PSD-95 protein” value in data set [1] is given as “effective”. In the data set with brain dendritic spines, the “level of brain dendritic spines” value is “effective”. For `O=c1ccn([C@@H]2O[C@H](COP(=O)(O)OP(O)(O)=S)[C@@H](O)[C@H]2O)c(=O)[nH]1` [UDPβS, Uridine β-thiodiphosphate], the “level of the PSD-95 protein” value in data set [1] is given as “effective”. For the same compound, the “level of brain dendritic spines” value with brain dendritic spines is reported as “effective”. As to `O=c1ccn([C@@H]2O[C@H](COP(=O)(O)OP(=O)(O)OP(=O)(O)O)[C@@H](O)[C@H]2O)c(=O)[nH]1` [UTP, uridine 5′-triphosphate], the “level of the PSD-95 protein” value in data set [1] was “effective”. In addition, in the data set with brain dendritic spines, the “level of brain dendritic spines” value is “effective”.

With `O=c1ccn(C2OC(COP(=O)([O-])OP(=O)([O-])OP(=O)([O-])S)C(O)C2O)c(=O)[nH]1.[Na+].[Na+].[Na+]` (stereo not shown) [UTPγS trisodium salt], the “level of the PSD-95 protein” value in data set [1] is given as “effective”. For the same compound, the “level of brain dendritic spines” value with brain dendritic spines was “effective”.

Regarding `O=c1ccn([C@@H]2O[C@H](COP(=O)(O)OP(=O)(O)OP(O)(O)=S)[C@@H](O)[C@H]2O)c(=O)[nH]1` [UTPγS, uridine γ-thiophosphate], the “level of the PSD-95 protein” value in data set [1] is on record as “effective”. In addition, the “level of brain dendritic spines” value in the data set with brain dendritic spines was “effective”. For `Nc1ccn([C@H]2C[C@H](O)[C@@H](COP(=O)(O)OP(=O)(O)OP(=O)(O)OP(=O)(O)OC[C@H]3O[C@@H](n4ccc(=O)[nH]c4=O)[C@H](O)[C@@H]3O)O2)c(=O)n1` [denufosol], the “level of the PSD-95 protein” value in data set [1] is on record as “effective”. For the same compound, the “level of brain dendritic spines” value in the data set with brain dendritic spines is given as “effective”.

Turning to `O=c1ccn([C@@H]2O[C@H](CO)[C@@H](O)[C@H]2O)c(=O)[nH]1` [uridine], in data set [2], the “uridine entering the liver via the portal vein metabolized in a single pass” value is “more than 90%”. Regarding `Nc1ncnc2c1ncn2[C@@H]1O[C@H](COP(=O)(O)CP(=O)([O-])OP(=O)([O-])[O-])[C@@H](O)[C@H]1O.[Na+].[Na+].[Na+]` [α,β-Methyleneadenosine 5′-triphosphate trisodium salt], in data set [1], the “level of the PSD-95 protein” value is reported as “effective”. In addition, in the data set with brain dendritic spines, the “level of brain dendritic spines” value is on record as “effective”.

For the compound `Nc1ncnc2c1ncn2[C@@H]1O[C@H](COP(=O)(O)CP(=O)(O)OP(=O)(O)O)[C@@H](O)[C@H]1O` [α,β-methylene ATP], the “level of the PSD-95 protein” value in data set [1] was “effective”. Besides, the “level of brain dendritic spines” value with brain dendritic spines is “effective”. With BzATP triethylammonium salt, the “level of the PSD-95 protein” value in data set [1] was “effective”. For the same compound, the “level of brain dendritic spines” value in the data set on brain dendritic spines is reported as “effective”. On to diadenosine pentaphosphate, for which the “level of the PSD-95 protein” value in data set [1] is “effective”. Also, the “level of brain dendritic spines” value in the data set with brain dendritic spines is “effective”.

For diuridine triphosphate, in data set [1], the “level of the PSD-95 protein” value is reported as “effective”. Further, in the data set on brain dendritic spines, the “level of brain dendritic spines” value is “effective”.
